Laboratory results taken from patent US6825199B2, “7-Substituted quinazolin-2,4-diones useful as antibacterial agents” (Warner-Lambert Company, priority 1997, dated 2004).
In brackets after ≈: the same amount, converted by molar mass. Where two headings read alike, the source gives them in different places.

Columns and labels:
S. aureus 29213 = test: Antibacterial assay, standard microtitration (MIC); assay type: cell-based; conditions: Gram positive; for MIC: Staphylococcus aureus, 29213, read-out: Minimum Inhibitory Concentrations S. aureus 29213
Method: (§1) Antibacterial assay: The compounds of the present invention were tested against an assortment of Gram negative and Gram positive organisms using standard microtitration techniques (Cohen, et al., Antimicrob. Agents Chemother., 1985;28:766; Heifetz, et al., Antimicrob. Agents Chemother., 1974;6:124).

E. coli Tol C = test: Antibacterial assay, standard microtitration (MIC); assay type: cell-based; conditions: for MIC: Escherichia coli, read-out: Minimum Inhibitory Concentrations E. coli Tol C; for Minimum Inhibitory Concentrations E. coli Tol C: Gram negative
Method: as §1

B. subtilis RB1 = test: Antibacterial assay, standard microtitration (MIC); assay type: cell-based; conditions: Bacillus subtilis, Gram positive, read-out: Minimum Inhibitory Concentrations B. subtilis RB1
Method: as §1

E. coli B90 = test: Antibacterial assay, standard microtitration (MIC); assay type: cell-based; conditions: Gram negative; for MIC: Escherichia coli, B90, read-out: Minimum Inhibitory Concentrations E. coli B90
Method: as §1

E. coli MC4100 = test: Antibacterial assay, standard microtitration (MIC); assay type: cell-based; conditions: Gram negative; for MIC: Escherichia coli, MC4100, read-out: Minimum Inhibitory Concentrations E. coli MC4100
Method: as §1

S. pyogenes C203 = test: Antibacterial assay, standard microtitration (MIC); assay type: cell-based; conditions: Gram positive; for MIC: Streptococcus pyogenes, C203, read-out: Minimum Inhibitory Concentrations S. pyogenes C203
Method: as §1

E. coli Topoisomerase IV = target: T1, E. coli Topoisomerase IV (Escherichia coli, UniProt P0AFI2+P20083); test: Topoisomerase IV k-DNA decatenation assay; assay type: biochemical
T1 construct: made in house; host or cells: E. coli overexpressing strains
T1 sequence (P20083 whole entry): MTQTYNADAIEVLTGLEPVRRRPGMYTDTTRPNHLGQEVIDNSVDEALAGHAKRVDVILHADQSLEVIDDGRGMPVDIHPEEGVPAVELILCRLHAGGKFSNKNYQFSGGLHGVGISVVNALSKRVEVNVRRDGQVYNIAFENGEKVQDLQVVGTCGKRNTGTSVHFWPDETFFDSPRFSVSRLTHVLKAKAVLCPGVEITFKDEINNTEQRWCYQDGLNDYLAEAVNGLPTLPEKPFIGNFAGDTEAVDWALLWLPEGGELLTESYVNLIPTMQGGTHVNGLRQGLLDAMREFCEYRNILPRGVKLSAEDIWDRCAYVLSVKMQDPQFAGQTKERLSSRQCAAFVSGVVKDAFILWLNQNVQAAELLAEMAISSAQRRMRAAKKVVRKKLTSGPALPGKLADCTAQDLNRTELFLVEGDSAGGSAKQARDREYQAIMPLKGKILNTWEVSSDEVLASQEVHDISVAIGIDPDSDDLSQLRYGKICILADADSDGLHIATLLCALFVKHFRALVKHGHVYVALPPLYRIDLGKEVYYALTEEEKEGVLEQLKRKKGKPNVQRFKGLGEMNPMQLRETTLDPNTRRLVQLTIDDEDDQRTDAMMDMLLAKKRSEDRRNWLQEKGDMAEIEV
T1 sequence (P0AFI2 whole entry): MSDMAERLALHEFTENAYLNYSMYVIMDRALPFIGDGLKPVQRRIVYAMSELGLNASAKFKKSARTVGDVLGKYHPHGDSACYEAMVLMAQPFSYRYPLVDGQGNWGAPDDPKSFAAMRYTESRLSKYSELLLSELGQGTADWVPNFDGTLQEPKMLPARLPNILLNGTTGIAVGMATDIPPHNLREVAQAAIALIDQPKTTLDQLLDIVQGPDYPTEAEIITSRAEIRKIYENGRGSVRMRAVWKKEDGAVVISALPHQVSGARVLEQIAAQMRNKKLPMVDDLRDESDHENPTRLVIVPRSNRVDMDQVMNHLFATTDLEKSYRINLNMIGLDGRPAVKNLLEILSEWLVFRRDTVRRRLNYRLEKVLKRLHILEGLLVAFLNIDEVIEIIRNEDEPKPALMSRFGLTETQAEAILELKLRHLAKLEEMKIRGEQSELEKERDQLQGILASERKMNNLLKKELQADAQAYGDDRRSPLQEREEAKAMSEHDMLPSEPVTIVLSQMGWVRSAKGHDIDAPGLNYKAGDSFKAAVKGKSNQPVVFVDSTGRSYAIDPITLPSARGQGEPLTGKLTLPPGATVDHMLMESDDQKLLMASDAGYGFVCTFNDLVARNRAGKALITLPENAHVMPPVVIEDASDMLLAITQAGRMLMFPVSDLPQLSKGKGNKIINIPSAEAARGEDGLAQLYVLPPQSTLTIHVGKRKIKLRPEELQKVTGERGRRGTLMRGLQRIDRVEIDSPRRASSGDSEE
Method: Topoisomerase IV assay: Topoisomerase IV was purified from E. coli overexpressing strains, and the compounds were assayed according to literature conditions (Journal of Biological Chemistry, 1993;268(32):24481). The k-DNA decatenation assay was used. Briefly, reactions were performed in buffer R (40 mM Tris-HCl (pH 7.5),6 mM MgCl2, 10 mM DTT, 100 mM potassium glutamate, 40 μM ATP, 50 μg/mL bovine serum albumin, 10 mM NaCl). Two-tenths microgram of kinetoplast DNA (k-DNA; TopoGen, Columbus, Ohio) was incubated with 5 ng of E. coli Topoisomerase IV in the presence or absence of test compounds for 10 minutes at 37° C. Subsequently, one-tenth volume of 10×gel loading buffer (0.3% bromophenol blue, 16% Ficoll, 10 mM Na2HPO4) was added, and samples were loaded onto horizontal 0.8% agarose gels prepared with TBE buffer and containing 0.05 μg/mL of ethidium bromide. Electrophoresis was at 70 V for 2 to 4 hours. Gels were then examined by exposure to UV light. The concentration of drug inhibiting 50% of the decantenating activity of Topoisomerase IV is given as an IC50 and recorded in Table 2.

E. coli gyrase = target: T2, E. coli gyrase (Escherichia coli, UniProt P0AES4+P0AES6); test: DNA gyrase supercoiling inhibition assay; assay type: biochemical
T2 construct: purchased Lucent, Ltd., Leicester, UK
T2 sequence (P0AES4 whole entry, one chain of several): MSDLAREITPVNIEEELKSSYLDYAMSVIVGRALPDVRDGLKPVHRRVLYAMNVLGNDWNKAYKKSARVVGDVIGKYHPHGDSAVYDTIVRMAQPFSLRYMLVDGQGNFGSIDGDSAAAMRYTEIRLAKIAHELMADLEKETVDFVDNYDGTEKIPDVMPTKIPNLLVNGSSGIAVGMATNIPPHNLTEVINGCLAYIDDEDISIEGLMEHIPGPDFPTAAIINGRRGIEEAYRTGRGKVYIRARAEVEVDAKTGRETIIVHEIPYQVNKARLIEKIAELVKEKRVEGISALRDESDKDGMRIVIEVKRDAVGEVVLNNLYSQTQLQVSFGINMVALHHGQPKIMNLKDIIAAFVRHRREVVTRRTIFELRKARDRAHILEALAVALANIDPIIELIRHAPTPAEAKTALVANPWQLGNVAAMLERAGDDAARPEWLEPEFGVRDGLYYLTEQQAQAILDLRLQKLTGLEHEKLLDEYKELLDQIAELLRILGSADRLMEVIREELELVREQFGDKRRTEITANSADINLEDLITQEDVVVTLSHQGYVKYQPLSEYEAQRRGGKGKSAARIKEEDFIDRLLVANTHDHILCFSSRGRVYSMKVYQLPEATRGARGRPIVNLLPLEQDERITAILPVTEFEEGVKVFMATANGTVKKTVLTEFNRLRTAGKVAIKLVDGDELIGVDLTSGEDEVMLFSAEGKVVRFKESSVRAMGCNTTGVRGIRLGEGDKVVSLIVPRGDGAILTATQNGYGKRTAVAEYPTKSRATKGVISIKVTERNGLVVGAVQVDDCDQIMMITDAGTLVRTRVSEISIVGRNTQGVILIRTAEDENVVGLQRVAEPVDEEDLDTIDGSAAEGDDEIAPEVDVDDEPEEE
Method: DNA gyrase assay: The effects of test agents on the activity of DNA gyrase was determined by the supercoiling inhibition assay, following reaction conditions recommended by the enzyme supplier (Lucent, Ltd., Leicester, UK), as follows. Reactions were performed in buffer G (35 mM Tris-HCl (pH 7.5), 24 mM KCl, 4 mM MgCl2, 2 mM DTT, 1.8 mM spermidine, 1 mM ATP, 0.1 mg/mL bovine serum albumin). 0.25 μg of relaxed plasmid pBR322 (Lucent, Ltd., Leicester, UK) was reacted with 1 U E. coli gyrase (Lucent, Ltd., Leicester, UK), in the absence or presence of drugs, for 30 minutes at 37° C. Reactions were stopped by the addition of SDS and proteinase K to respective final concentrations of 1% and 0.5 mg/mL. After an additional 30 minutes at 37° C., one-tenth volume of 10×loading buffer (0.3% bromophenol blue, 16% Ficoll, 10 mM Na2HPO4) was added, and reactions were loaded onto agarose gels and electrophoresed as described above for intercalation assays. The concentration of drug inhibiting 50% of the supercoiling activity of DNA gyrase is given as an IC50 and recorded in Table 2.

[1] = supercoiling of relaxed pBR322, 30 minutes at 37° C., read-out: Gyrase IC50
[2] = k-DNA decatenation, 10 minutes at 37° C., read-out: DNA TopIV IC50

Row | SMILES | MIC (S. aureus 29213) [µg/mL] | MIC (E. coli Tol C) [µg/mL] | MIC (B. subtilis RB1) [µg/mL] | MIC (E. coli B90) [µg/mL] | MIC (E. coli MC4100) [µg/mL] | MIC (S. pyogenes C203) [µg/mL] | IC50 (E. coli Topoisomerase IV) [µM] | IC50 (E. coli gyrase) [µM] | IC50 (E. coli gyrase; [1]) [µM] | IC50 (E. coli Topoisomerase IV; [2]) [µM] | Minimum Inhibitory Concentrations S. aureus 29213 (S. aureus 29213) [µg/mL] | Minimum Inhibitory Concentrations E. coli Tol C (E. coli Tol C) [µg/mL] | Minimum Inhibitory Concentrations E. coli B90 (E. coli B90) [µg/mL] | Minimum Inhibitory Concentrations E. coli MC4100 (E. coli MC4100) [µg/mL] | Minimum Inhibitory Concentrations S. pyogenes C203 (S. pyogenes C203) [µg/mL]
1 | CCn1c(=O)n(O)c(=O)c2cc(F)c(N3CCCC3)cc21 [Example 1, 1-Ethyl-6-fluoro-3-hydroxy-7-pyrrolidin-1-yl-1H-quinazoline-2,4-dione] | 32 (≈ 109 µM) | 1 (≈ 3.41 µM) | 4 (≈ 13.6 µM) | 2 (≈ 6.82 µM) | > 64 | 32 (≈ 109 µM) |  |  |  |  |  |  |  |  | 
2 | CCn1c(=O)n(O)c(=O)c2cc(F)c(N3CCN(C)CC3)cc21 [Example 2, 1-Ethyl-6-fluoro-3-hydroxy-7-(4-methyl-piperazin-1-yl)-1H-quinazoline-2,4-dione] | > 64 | 2 (≈ 6.2 µM) | 16 (≈ 49.6 µM) | 4 (≈ 12.4 µM) | 16 (≈ 49.6 µM) | > 64 | > 100 | 22 |  |  |  |  |  |  | 
3 | CCn1c(=O)n(O)c(=O)c2cc(F)c(N3CCCCC3)cc21 [Example 4, 1-Ethyl-6-fluoro-3-hydroxy-7-piperidin-1-yl-1H-quinazoline-2,4-dione] | 64 (≈ 208 µM) | 16 (≈ 52.1 µM) | 8 (≈ 26 µM) | 16 (≈ 52.1 µM) | > 64 | 64 (≈ 208 µM) |  |  |  |  |  |  |  |  | 
4 | CCn1c(=O)n(O)c(=O)c2cc(F)c(N3CCC(CN)C3)cc21.Cl (stereo not drawn) [Example 6, 7-(3-Aminomethyl-pyrrolidin-1-yl)-1-ethyl-6-fluoro-3-hydroxy-1H-quinazoline-2,4-dione, hydrochloride] | 64 | 8 | 32 | 8 | 64 | 16 | 59 | 5.5 |  |  |  |  |  |  | 
5 | CCn1c(=O)n(O)c(=O)c2cc(F)c(N3CCNCC3)cc21 [Example 7, 1-Ethyl-6-fluoro-3-hydroxy-7-piperazin-1-yl-1H-quinazoline-2,4-dione] | > 64 | 8 (≈ 25.9 µM) | > 64 | 4 (≈ 13 µM) | 16 (≈ 51.9 µM) | > 64 | 49 | > 100 |  |  |  |  |  |  | 
6 | O=c1c2cc(F)c(N3CCCC3)cc2n(-c2ccc(O)cc2)c(=O)n1O [Example 14, 1-(4-Hydroxyphenyl)-6-fluoro-3-hydroxy-7-pyrrolidin-yl-1-1H-quinazoline-2,4-dione] | 32 (≈ 89.6 µM) | 1 (≈ 2.8 µM) |  | 4 (≈ 11.2 µM) | 64 (≈ 179 µM) | 64 (≈ 179 µM) |  |  | 46 |  |  |  |  |  | 
7 | Cl.NC1CCN(c2cc3c(cc2F)c(=O)n(O)c(=O)n3-c2ccc(F)cc2)C1 (stereo not drawn) [Example 17, 1-(4-Fluorophenyl)-6-fluoro-3-hydroxy-7-(3-aminopyrrolidin-1-yl)-1H-quinazoline-2,4-dione, hydrochloride] | > 64 | 32 |  | 64 | > 64 | 32 |  |  |  |  |  |  |  |  | 
8 | COc1cccc(-n2c(=O)n(O)c(=O)c3cc(F)c(N4CCCC4)cc32)c1 [Example 23, 1-(3-Methoxyphenyl)-6-fluoro-3-hydroxy-7-pyrrolidin-1-yl-1H-quinazoline-2,4-dione] | 32 (≈ 86.2 µM) | 32 (≈ 86.2 µM) |  | 32 (≈ 86.2 µM) | > 64 | 32 (≈ 86.2 µM) |  |  | 36 | > 100 |  |  |  |  | 
9 | O=c1c2cc(F)c(N3CCCC3)cc2n(-c2cccc(F)c2)c(=O)n1O [Example 28, 1-(3-Fluorophenyl)-6-fluoro-3-hydroxy-7-pyrrolidin-1-yl-1H-quinazoline-2,4-dione] | 32 (≈ 89.1 µM) | 2 (≈ 5.57 µM) |  | 2 (≈ 5.57 µM) | > 64 | 32 (≈ 89.1 µM) |  |  |  |  |  |  |  |  | 
10 | O=c1c2cc(F)c(N3CCCC3)nc2n(C2CC2)c(=O)n1O [Example 32, 1-Cyclopropyl-6-fluoro-3-hydroxy-7-pyrrolidin-1-yl-1H-pyrido[2,3-d]pyrimidine-2,4-dione] | 8 (≈ 26.1 µM) | 0.5 (≈ 1.63 µM) |  | 0.5 (≈ 1.63 µM) | > 64 | 64 (≈ 209 µM) |  |  | 6.4 | > 100 |  |  |  |  | 
11 | CCn1c(=O)n(O)c(=O)c2cc(F)c(N3CCC(N)C3)nc21.O=C(O)C(F)(F)F (stereo not drawn) [Example 36, 7-(3-Aminopyrrolidin-1-yl)-1-ethyl-6-fluoro-3-hydroxy-1H-pyrido[2,3-d]pyrimidine-2,4-dione, trifluoroacetate] | 64 | 2 |  | 2 | 8 | 32 |  |  |  |  |  |  |  |  | 
12 | N[C@@H]1[C@H]2CN(c3cc4c(cc3F)c(=O)n(O)c(=O)n4C3CC3)C[C@@H]12.O=C(O)C(F)(F)F [Example 42, (1α, 5α, 6α)7-(6-Amino-3-aza-bicyclo[3.1.0]hex-3-yl)-1-cyclopropyl-6-fluoro-3-hydroxy-1H-quinazoline-2,4-dione, trifluoroacetate] |  |  |  |  |  |  |  |  | 0.76 | 28 | 4.0 | 0.25 | 0.25 | 1.0 | 2.0
13 | O=c1c2cc(F)c(N3CCCC3)c3c2n(c(=O)n1O)CCS3 [Example 44, 8-Fluoro-5-hydroxy-9-pyrrolidin-1-yl-2,3-dihydro-1-thia-3α,5-diaza-phenalene-4,6-dione] | 4 (≈ 12.4 µM) | 1 (≈ 3.09 µM) |  | 1 (≈ 3.09 µM) | > 64 | 32 (≈ 99 µM) |  |  | 12 | > 100 |  |  |  |  | 
14 | NC1C2CN(c3c(F)cc4c(=O)n(O)c(=O)n5c4c3SCC5)CC12.O=C(O)C(F)(F)F (stereo not drawn) [Example 46, (1α,5α,6α)9-(6-Amino-3-aza-bicyclo[3.1.0]hex-3-yl)-8-fluoro-5-hydroxy-2,3-dihydro-1-thia-3α,5-diaza-phenalene-4,6-dione, trifluoroacetate] |  |  |  |  |  |  |  |  | 8.3 |  | >64 | 1.0 | 2.0 | 8.0 | 32
15 | O=c1c2cc(F)c(N3CCCC3)nc2n(-c2ccc(F)cc2)c(=O)n1O [Example 56, 6-Fluoro-1-(4-fluorophenyl)-3-hydroxy-7-pyrrolidin-1-yl-1H-pyrido[2,3-d]pyrimidine-2,4-dione] | 8 (≈ 22.2 µM) | 0.13 (≈ 0.361 µM) |  | 0.13 (≈ 0.361 µM) | 16 (≈ 44.4 µM) | 8 (≈ 22.2 µM) |  |  |  |  |  |  |  |  | 
